# Test results from patent publication US20050014817A1, “Fluorothiophene derivatives, process for preparing them and pharmaceutical compositions containing them” (Pfizer Inc, priority 2003, published 2005).
# Assays:
# MMP-13 = MMP-13 (Homo sapiens, UniProt P45452); test: MMP-12 test adapted to MMP-13; assay type: biochemical
# Protocol: (§1) The inhibitory activity of the compounds of formula (I) on metalloprotease-12 is evaluated by testing the capacity of the compounds of the invention to inhibit the proteolysis of a peptide that is an MMP-12 substrate.
# (§2) The reaction starts with the sequential addition of 41 μl of FP-1 substrate (final concentration of 10 μM) to a buffer solution of 50 mM of Tris-HCl and 10 mM of CaCl2, and containing 5 mM of hydroxamic acid and 5 μl of the enzyme diluted in a 0.005% Brij-35 buffer solution. The microplates are incubated for 20 minutes at room temperature.
# (§3) The compounds of the invention are tested at concentrations ranging from 0.3 to 30 μM.
# (§4) The measurement of the amount of proteolysis of the peptide substrate is monitored by means of a measurement of absorbance at 405 nm using a microplate spectrophotometer, at room temperature. The IC50 values are calculated from curves in which the percentage of the catalytic activity relative to the control is represented on the x-axis and the inhibitor concentration is represented on the y-axis.
# The test described above for the inhibition of MMP-12 is adapted and used to determine the capacity of the compounds of formula (I) to inhibit the metalloproteases MMP-1, MMP-2, MMP-3, MMP-7, MMP-9, MMP-13 and MMP-14.
# MMP-12 = MMP-12 (Homo sapiens, UniProt P39900); test: In vitro inhibition of MMP-12 proteolysis of fluorigenic peptide FP-1; assay type: biochemical; conditions: FP-1 substrate 10 μM, 20 minutes at room temperature
# Protocol: In Vitro Evaluation of the Inhibitory Activity of the Compounds of the Invention on MMP-12:
# as §1
# The substrate peptide used (fluorigenic peptide-1: FP-1) in the test has the following sequence: Mca-Pro-Leu-Gly-Leu-Dap(Dnp)-Ala-Arg-NH2.
# The inhibitory activity of a compound of formula (I) is expressed as the IC50 value, which represents the concentration of inhibitor for which a 50% inhibition of the metalloprotease is observed.
# as §2, §3, §4
# MMP-12, sequence (P39900 106-470): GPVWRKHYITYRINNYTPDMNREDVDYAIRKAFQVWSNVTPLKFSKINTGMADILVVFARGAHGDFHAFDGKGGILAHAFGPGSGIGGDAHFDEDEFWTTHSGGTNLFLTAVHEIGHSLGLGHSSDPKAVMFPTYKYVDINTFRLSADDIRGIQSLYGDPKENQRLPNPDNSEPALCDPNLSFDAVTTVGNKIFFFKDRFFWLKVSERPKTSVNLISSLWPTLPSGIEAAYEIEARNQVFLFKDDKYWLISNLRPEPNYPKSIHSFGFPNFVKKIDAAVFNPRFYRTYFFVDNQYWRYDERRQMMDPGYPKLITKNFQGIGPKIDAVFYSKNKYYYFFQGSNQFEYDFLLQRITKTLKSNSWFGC
IC50 (MMP-13) [µM],IC50 (MMP-12) [µM],Compound
2.8,0.14,"O=C(NC[C@H]1CC[C@H](C(=O)O)CC1)c1cc(-c2ccc(OC(F)(F)F)cc2)c(F)s1 [Example 1, 4-({[5-Fluoro-4-(4-trifluoromethoxyphenyl)thien-2-yl]carboxamido}-methyl)cyclohexanecarboxylic Acid]"
0.038,0.007,"CC(=O)c1ccc(-c2ccc(-c3cc(C(=O)NC[C@H]4CC[C@H](C(=O)O)CC4)sc3F)cc2)cc1 [Example 2, trans4-({[5-Fluoro-4-(4-[4-acetylphenyl]phenyl)thien-2-yl]carboxamido}methyl)cyclohexanecarboxylic Acid]"
0.085,0.024,"CC(=O)c1ccc(-c2ccc(-c3cc(C(=O)N[C@H](CC(=O)O)c4ccccc4)sc3F)cc2)cc1 [Example 3, 3-(R)-Phenyl-3-({5-fluoro-4-[4-(4-acetylphenyl)phenyl]thien-2 yl}carboxamido)-propanoic Acid]"
